Assay results reported in patent US20140193824A1, “High-Resolution Clonal Typing of Escherichia coli” (priority 2013, published 2014).
Where two headings read alike, the source gives them in different places.

Key:
[1] = system: clinical E. coli isolates; experiment: Antimicrobial susceptibility by disk diffusion testing (CLSI criteria) of clinical E. coli isolates; type: cell-based, Escherichia coli; settings: for Observed Resistance rate: rate of resistant isolates among 1,413 nonsingleton isolates of the primary collection
Experimental: (Veterans Affairs Medical Center).
Antimicrobial susceptibility profiles were determined using disk diffusion testing.
The prevalence of susceptibility to individual agents was calculated for the total primary collection, for individual participating laboratories, and for individual CH clonotypes. Odds ratios (ORs) were calculated for each subgroup (i.e., laboratory or clonotype) relative to the rest of the population. If the OR was >2 or <0.5, its statistical significance was evaluated using Fisher's exact test.

[2] = system: clinical E. coli isolates; experiment: Clonotype-guided (CH, fumC-fimH) prediction of antimicrobial resistance, primary collection, >=80% clonotype susceptibility cutoff; parameters: species or system Escherichia coli; settings: for Resistance among allowed isolates (actual prevalence of resistance): allowed population; for Resistance among rejected isolates: rejected population
Experimental: (§1) Antimicrobial susceptibility profiles were determined using disk diffusion testing. The interpretive criteria were those specified by the Clinical and Laboratory Standards Institute (CLSI).
Internal (<500 bp) regions of fumC and fimH were amplified by PCR, and the DNA sequences were determined by Sanger sequencing. Each unique combination of fumC and fimH alleles defined a CH clonotype. The diversity of the clonotype distribution was evaluated using the Simpson's modified alpha-diversity index.
(§2) Each isolate in the primary collection was classified as resistant or susceptible to each of the 11 antimicrobials based on the prevalence of susceptibility to the particular antimicrobial in the rest of isolates belonging to the same clonotype (i.e., for each isolate classification, the susceptibility of the corresponding clonotype was recalculated by excluding the profile of the isolate to be classified). Thus, clonotype-guided antibiotic selection was evaluated only for isolates from clonotypes comprising greater than or equal to 2 isolates.

[3] = system: clinical E. coli isolates
Source text: The primary set of 1,518 recent clinical E. coli isolates consisted of consecutive single-patient human extraintestinal isolates recovered between October 2010 and June 2011 at five clinical microbiology laboratories serving distinct patient populations in Seattle, Wash. (Group Health Cooperative, Harborview Medical Center, Seattle Children's Hospital, and the University of Washington Medical Center), and Minneapolis, Minn. (Veterans Affairs Medical Center). […] Another set of E. coli isolates was obtained from the University Hospital in Munster, Germany, and consisted of 161 consecutive isolates from urine samples recovered from July to September 2012.
as §1, §2
To avoid potential self-selection bias in the analysis of these smaller groups, the susceptibility classification for the isolates in each subset was done after excluding the susceptibility profiles of that particular subset, i.e., by using the clonotype susceptibility profiles of the remaining isolates from common clonotypes (Table 4).

[4] = Harborview Med. Center, Seattle

## CC1(C)S[C@@H]2[C@H](NC(=O)[C@H](N)c3ccccc3)C(=O)N2[C@H]1C(=O)O [AMP, ampicillin]
[1]
  Observed Resistance rate: 51.6%
[2]
  Resistance among allowed isolates (actual prevalence of resistance): 21.9%
  Resistance among rejected isolates: 60.1%

## CO/N=C(\C(=O)N[C@@H]1C(=O)N2C(C(=O)O)=C(CSc3nc(=O)c(=O)[nH]n3C)CS[C@H]12)c1csc(N)n1 [CTR, ceftriaxone]
[1]
  Observed Resistance rate: 5.38%
[2]
  Resistance among allowed isolates (actual prevalence of resistance): 4.2%
  Resistance among rejected isolates: 31.1%

## Cc1nnc(SCC2=C(C(=O)O)N3C(=O)[C@@H](NC(=O)Cn4cnnn4)[C@H]3SC2)s1 [CZ, cefazolin]
[1]
  Observed Resistance rate: 19.7%
[2]
  Resistance among allowed isolates (actual prevalence of resistance): 10.7%
  Resistance among rejected isolates: 32.0%

## O=C1CN(/N=C/c2ccc([N+](=O)[O-])o2)C(=O)N1 [NIT, nitrofurantoin]
[1]
  Observed Resistance rate: 6.79%
[2]
  Resistance among allowed isolates (actual prevalence of resistance): 5.5%
  Resistance among rejected isolates: 27.4%

## CN(C)[C@@H]1C(O)=C(C(N)=O)C(=O)[C@@]2(O)C(O)=C3C(=O)c4c(O)cccc4[C@@](C)(O)[C@H]3C[C@@H]12 [TET, tetracycline]
[1]
  Observed Resistance rate: 29.5%
[2]
  Resistance among allowed isolates (actual prevalence of resistance): 11.5%
  Resistance among rejected isolates: 48.0%

## amoxicillin-clavulanate [A/K]
[1]
  Observed Resistance rate: 25.5%

## ampicillin-sulbactam [A/S]
[1]
  Observed Resistance rate: 29.4%
[2]
  Resistance among allowed isolates (actual prevalence of resistance): 13.0%
  Resistance among rejected isolates: 37.9%

## gentamicin [GM]
[1]
  Observed Resistance rate: 8.92%
[2]
  Resistance among allowed isolates (actual prevalence of resistance): 4.3%
  Resistance among rejected isolates: 31.4%

## piperacillin-tazobactam [PTZ]
[1]
  Observed Resistance rate: 3.96%
[2]
  Resistance among allowed isolates (actual prevalence of resistance): 3.8%
  Resistance among rejected isolates: 13.3%

## trimethoprim-sulfamethoxazole [T/S]
[1]; Children's Hospital, Seattle
  Total Resistant: 34.2%
[1]; Group Health Co-op, Seattle
  Total Resistant: 20.1%
[1]; [4]
  Total Resistant: 30.4%
[1]; Univ. of Münster, Münster, 161 urine isolates
  Total Resistant: 32.6%
[1]; Univ. of Washington, Seattle
  Total Resistant: 33.3%
[1]; VA Med. Center, Minneapolis
  Total Resistant: 34.0%
[1]
  Observed Resistance rate: 26.9%
[3]; Children's Hospital, Seattle
  Resistance among allowed isolates: 14.2%
[3]; Group Health Co-op, Seattle
  Resistance among allowed isolates: 5.0%
  Resistance among rejected isolates: 36.2%
[3]; [4]
  Resistance among allowed isolates: 7.4%
[3]; Univ. of Münster, Münster
  Resistance among allowed isolates: 14.3%
[3]; Univ. of Washington, Seattle
  Resistance among allowed isolates: 11.4%
  Resistance among rejected isolates: 62.6%
[3]; VA Med. Center, Minneapolis
  Resistance among allowed isolates: 17.0%
[3]; mean over the laboratories
  Actual prevalence of resistance among allowed isolates, mean: 12.1%
